38 molecules from US20260007684A1, “AMIDE DERIVATIVES FOR INHIBITING NLRP3 AND USES THEREOF” (Ventus Therapeutics U.S., Inc., priority 2023, published 2026) can be followed below.

Molecules are shown by their SMILES.

T1 sequence (Q96P20 whole entry): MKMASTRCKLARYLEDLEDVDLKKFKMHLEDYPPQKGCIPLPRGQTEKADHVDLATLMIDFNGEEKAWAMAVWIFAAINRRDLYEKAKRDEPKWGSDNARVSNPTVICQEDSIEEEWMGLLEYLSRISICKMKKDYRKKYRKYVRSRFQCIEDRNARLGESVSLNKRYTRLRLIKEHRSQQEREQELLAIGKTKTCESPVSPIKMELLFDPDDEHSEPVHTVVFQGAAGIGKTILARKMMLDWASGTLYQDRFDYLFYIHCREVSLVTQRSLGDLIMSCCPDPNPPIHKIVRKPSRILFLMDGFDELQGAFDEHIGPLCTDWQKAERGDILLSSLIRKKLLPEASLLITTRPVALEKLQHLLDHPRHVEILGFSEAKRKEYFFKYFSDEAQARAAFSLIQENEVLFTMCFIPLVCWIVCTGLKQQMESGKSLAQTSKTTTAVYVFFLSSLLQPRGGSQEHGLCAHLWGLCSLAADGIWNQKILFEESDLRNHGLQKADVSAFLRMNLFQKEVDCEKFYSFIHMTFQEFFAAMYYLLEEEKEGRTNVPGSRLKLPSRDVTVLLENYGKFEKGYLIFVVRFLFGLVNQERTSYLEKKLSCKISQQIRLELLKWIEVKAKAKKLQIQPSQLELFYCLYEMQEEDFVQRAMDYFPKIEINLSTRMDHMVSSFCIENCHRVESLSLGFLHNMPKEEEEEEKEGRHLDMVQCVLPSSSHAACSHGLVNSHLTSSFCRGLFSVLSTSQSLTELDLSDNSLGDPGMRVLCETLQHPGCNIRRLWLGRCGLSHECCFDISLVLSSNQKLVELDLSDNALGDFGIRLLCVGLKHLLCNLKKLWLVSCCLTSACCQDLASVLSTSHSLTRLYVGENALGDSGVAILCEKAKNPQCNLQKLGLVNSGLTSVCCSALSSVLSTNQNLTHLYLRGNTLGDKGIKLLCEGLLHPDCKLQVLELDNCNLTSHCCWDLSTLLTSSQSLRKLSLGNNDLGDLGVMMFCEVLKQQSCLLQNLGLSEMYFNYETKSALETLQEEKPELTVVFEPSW

The first experiment addresses T1, human NLRP3 (Homo sapiens (Human), UniProt Q96P20). Nature of the experiment: Scintillation Proximity (SPA) NLRP3 Assay: displacement of 3H-MCC950. The note with it: SPA IC50, displacement of 3H-MCC950. Format: binding. Background: Scintillation proximity formats need no separation of bound from free tracer.
The term IC50 denotes the midpoint of a concentration-inhibition curve. `O=C(NC1CCC[C@H]2CC[C@@H]1N2c1nnn[nH]1)C1(c2ccc(C3CC3)cc2O)CC1` (single isomer, unassigned) [93D*] had an IC50 of 1 to 10 µM.

Consider `C[C@H]1C[C@H]2CC[C@@H]([C@@H](NC(=O)C3(c4ccc(C(F)(F)F)cc4)CC3)C1)N2c1nnn[nH]1` [104H*, N-((1S,2S,4R,6R)-4-methyl-9-(1H-tetrazol-5-yl)-9-azabicyclo[4.2.1]nonan-2-yl)-1-(4-(trifluoromethyl)phenyl)cyclopropane-1-carboxamide], for which the IC50 was in the range of 50 to 100 µM.

For the molecule `O=C(N[C@H]1CCC[C@@H]2CC[C@H]1N2c1nnn[nH]1)C1(c2ccc(Cl)cc2)CC1` (single isomer, unassigned) [9B*, N-(9-(1H-tetrazol-5-yl)-9-azabicyclo[4.2.1]nonan-2-yl)-1-(4-chlorophenyl)cyclopropane-1-carboxamide], the IC50 is over 100 µM.

Still in this experiment, the particulars now being: displacement of 3H-MCC950; read-out: SPA IC50.
On to `C[C@H]1CCN(c2nnn[nH]2)C[C@@H](NC(=O)C2(c3ccc(C4CC4)c(F)c3O)CC2)C1` (single isomer, unassigned) [32D*, 1-(4-cyclopropyl-3-fluoro-2-hydroxyphenyl)-N-(5-methyl-1-(1H-tetrazol-5-yl)azepan-3-yl)cyclopropane-1-carboxamide], for which the IC50 is 10 to 50 µM.

On to `C[C@H]1CCN(c2nnn[nH]2)C[C@@H](NC(=O)C2(c3ccc(C(F)(F)F)cc3O)CC2)C1` (single isomer, unassigned) [63D*], for which the IC50 was under 1 µM.

Regarding `C[C@@H]1CCN(c2nnn[nH]2)C[C@@H](NC(=O)C2(c3ccc(Cl)cc3F)CC2)C1` (single isomer, unassigned) [56B*], the IC50 was 1 to 10 µM.

On to `C[C@@H]1CC[C@H](NC(=O)C2(c3ccc(C4CC4)cc3O)CC2)CN(c2nnn[nH]2)C1` (single isomer, unassigned) [91D*], for which the IC50 was in the range of 1 to 10 µM.

For the molecule `C[C@H]1CCN(c2nnn[nH]2)C[C@@H](NC(=O)C2(c3ccc(Br)cc3)CC2)C1` (single isomer, unassigned) [59D*], the concentration for half-maximal inhibition (IC50) lay within 1 to 10 µM.

Take `C[C@@H]1CCN(c2nnn[nH]2)C[C@@H](NC(=O)C2(c3ccc(C(F)(F)F)c(OC(F)F)c3)CC2)C1` (single isomer, unassigned) [54B*]: the IC50 is 10 to 50 µM.

With `CC1(C)C[C@H](NC(=O)C2(c3ccc(Cl)cc3O)CC2)CN(c2nnn[nH]2)C1` (single isomer, unassigned) [42B*], the IC50 fell in the range of 10 to 50 µM.

For the molecule `C[C@@H]1CCN(c2nnn[nH]2)C[C@@H](NC(=O)C2(c3ccc(Cl)c(F)c3)CC2)C1` (single isomer, unassigned) [65B*], the IC50 was in the range of 10 to 50 µM.

In the case of `C[C@@]1(NC(=O)C2(c3ccc(Cl)cc3)CC2)CCCN(c2nnn[nH]2)C1` (single isomer, unassigned) [11A*, 1-(4-chlorophenyl)-N-(3-methyl-1-(1H-tetrazol-5-yl)piperidin-3-yl)cyclopropane-1-carboxamide], the IC50 was over 100 µM.

For `O=C(NC1CC(C2CC2)CN(c2nnn[nH]2)C1)C1(c2ccc(Cl)cc2)CC1` (single isomer, unassigned) [Rac-13B*/C*, 1-(4-chlorophenyl)-N-(5-cyclopropyl-1-(1H-tetrazol-5-yl)piperidin-3-yl)cyclopropane-1-carboxamide], the IC50 lay within 50 to 100 µM.

For the molecule `O=C(N[C@H]1CCCN(c2nnn[nH]2)C1)C1(c2ccc(Cl)cc2)CC1` [Compound 10B, (S)—N-(1-(1H-tetrazol-5-yl)piperidin-3-yl)-1-(4-chlorophenyl)cyclopropane-1-carboxamide], the IC50 is over 100 µM.

Regarding `C[C@H]1CCN(c2nnn[nH]2)C[C@@H](NC(=O)C2(c3ccc(Cl)nc3O)CC2)C1` (single isomer, unassigned) [100D*], the IC50 is over 100 µM.

Turning to `C[C@H]1CCN(c2nnn[nH]2)C[C@@H](NC(=O)C2(c3ccc(C(F)(F)F)c(F)c3O)CC2)C1` (single isomer, unassigned) [31D*, 1-(3-fluoro-2-hydroxy-4-(trifluoromethyl)phenyl)-N-(5-methyl-1-(1H-tetrazol-5-yl)azepan-3-yl)cyclopropane-1-carboxamide], the IC50 lay within 1 to 10 µM.

`C[C@@H]1CCN(c2nnn[nH]2)C[C@@H](NC(=O)C2(c3ccc(OC(F)(F)F)cc3F)CC2)C1` (single isomer, unassigned) [64B*]: the half-maximal inhibitory concentration (IC50) is 10 to 50 µM.

In the case of `C[C@H]1CCN(c2nnn[nH]2)C[C@@H](NC(=O)C2(c3ccc(C(F)(F)F)cc3F)CC2)C1` (single isomer, unassigned) [68D*], the IC50 was in the range of 1 to 10 µM.

Regarding `C[C@H]1C[C@@H](NC(=O)C2(c3ccc(OC(F)F)cc3O)CC2)[C@@H]2CC[C@H]1N2c1nnn[nH]1` [43C*, N-((1S,2R,4S,5R)-4-methy1-8-(1H-tetrazol-5-yl)-8-azabicyclo[3.2.1]octan-2-yl)-1-(4-(difluoromethoxy)-2-hydroxyphenyl)cyclopropane-1-carboxamide], the IC50 is over 100 µM.

With `Cc1ccc(C2(C(=O)N[C@H]3C[C@H](C)CCN(c4nnn[nH]4)C3)CC2)c(O)c1` (single isomer, unassigned) [67B*], the IC50 was under 1 µM.

With `Cc1ccc(C2(C(=O)N[C@@H]3C[C@@H](C)CCN(c4nnn[nH]4)C3)CC2)cc1` (single isomer, unassigned) [71C*], the IC50 was in the range of 50 to 100 µM.

Consider `C[C@H]1C[C@H](NC(=O)C2(c3ccc(Cl)cc3)CC2)[C@@H]2CC[C@H]1N2c1nnn[nH]1` [80D*, 1-(4-chlorophenyl)-N-((1S,2S,4S,5R)-4-methyl-8-(1H-tetrazol-5-yl)-8-azabicyclo[3.2.1]octan-2-yl)cyclopropane-1-carboxamide], for which the IC50 is 50 to 100 µM.

As for `CC(C)c1ccc(C2(C(=O)N[C@H]3C[C@@H](C)CCN(c4nnn[nH]4)C3)CC2)c(O)c1` (single isomer, unassigned) [27D*, 1-(2-hydroxy-4-isopropylphenyl)-N-(5-methyl-1-(1H-tetrazol-5-yl)azepan-3-yl)cyclopropane-1-carboxamide], the IC50 was in the range of 1 to 10 µM.

Consider `C[C@H]1CCN(c2nnn[nH]2)C[C@@H](NC(=O)C2(c3ccc(OC(F)(F)F)cc3F)CC2)C1` (single isomer, unassigned) [64D*], for which the IC50 fell in the range of 1 to 10 µM.

With `C[C@H]1CCN(c2nnn[nH]2)C[C@H](NC(=O)C2(c3ccc(C(F)(F)F)c(F)c3)CC2)C1` (single isomer, unassigned) [66C*], the IC50 was over 100 µM.

In the case of `C[C@H]1CCN(c2nnn[nH]2)C[C@@H](NC(=O)C2(c3cnc(Cl)cc3O)CC2)C1` (single isomer, unassigned) [99D*], the IC50 lay in the range of 10 to 50 µM.

With `C[C@H]1CCN(c2nnn[nH]2)C[C@@H](NC(=O)C2(c3ccc(C4CCC4)cc3)CC2)C1` (single isomer, unassigned) [8D*, 1-(4-cyclobutylphenyl)-N-(5-methyl-1-(1H-tetrazol-5-yl)azepan-3-yl)cyclopropane-1-carboxamide], the IC50 was in the range of 10 to 50 µM.

With `C[C@H]1CCN(c2nnn[nH]2)C[C@H](NC(=O)C2(c3ccc(Cl)cc3)CC2)C1` (single isomer, unassigned) [12C*, 1-(4-chlorophenyl)-N-(5-methyl-1-(1H-tetrazol-5-yl)azepan-3-yl)cyclopropane-1-carboxamide], the half-maximal inhibitory concentration (IC50) was over 100 µM.

On to `C[C@H]1C[C@@H](NC(=O)C2(c3ccc(C(F)(F)F)cc3F)CC2)[C@@H]2CC[C@H]1N2c1nnn[nH]1` [84C*, 1-(2-fluoro-4-(trifluoromethyl)phenyl)-N-((1S,2R,4S,5R)-4-methy1-8-(1H-tetrazol-5-yl)-8-azabicyclo[3.2.1]octan-2-yl)cyclopropane-1-carboxamide], for which the IC50 is over 100 µM.

Take `C[C@H]1C[C@@H](NC(=O)C2(c3ccc(SC(F)F)cc3)CC2)[C@@H]2CC[C@H]1N2c1nnn[nH]1` [85C*, 1-(4-((difluoromethyl)thio)phenyl)-N-((1S,2R,4S,5R)-4-methyl-8-(1H-tetrazol-5-yl)-8-azabicyclo[3.2.1]octan-2-yl)cyclopropane-1-carboxamide]: the IC50 is over 100 µM.

As to `C[C@H]1C[C@H](NC(=O)C2(c3ccc(OC(F)(F)F)cc3)CC2)[C@@H]2CC[C@H]1N2c1nnn[nH]1` [82D*, N-((1S,2S,4S,5R)-4-methy1-8-(1H-tetrazol-5-yl)-8-azabicyclo[3.2.1]octan-2-yl)-1-(4-(trifluoromethoxy)phenyl)cyclopropane-1-carboxamide], the IC50 was over 100 µM.

As for `C[C@@H]1C[C@H](NC(=O)C2(c3ccc(C4CC4)cc3)CC2)[C@H]2CC[C@@H]1N2c1nnn[nH]1` [81B*, 1-(4-cyclopropylphenyl)-N-((1R,2S,4R,5S)-4-methyl-8-(1H-tetrazol-5-yl)-8-azabicyclo[3.2.1]octan-2-yl)cyclopropane-1-carboxamide], the IC50 lay in the range of 50 to 100 µM.

Turning to `O=C(N[C@@H]1C[C@@H](F)CN(c2nnn[nH]2)C1)C1(c2ccc(Cl)cc2)CC1` [Compound 44C, 1-(4-chlorophenyl)-N-[(3R,5R)-5-fluoro-1-(1H-tetrazol-5-yl)-3-piperidyl]cyclopropanecarboxamide], the IC50 was in the range of 10 to 50 µM.

`C[C@H]1CCN(c2nnn[nH]2)C[C@@H](NC(=O)C2(c3ccc(OC(F)F)cc3)CC2)C1` (single isomer, unassigned) [58D*]: the IC50 was in the range of 1 to 10 µM.

In the case of `C[C@@H]1CCN(c2nnn[nH]2)C[C@@H](NC(=O)C2(c3ccc(OC(F)F)cc3F)CC2)C1` (single isomer, unassigned) [3B*], the IC50 was 1 to 10 µM.

A further experiment concerns the target T1, human NLRP3. Briefly: Human PBMC NLRP3 Assay (LPS priming, ATP stimulation, cytokine measurement). The experiment is classed as cell-based. The following applies: human PBMC, LPS priming, ATP stimulation; read-out: PBMC IC50.
Take `O=C(N[C@@H]1CC[C@H]2CC[C@@H]1N2c1nnn[nH]1)C1(c2ccc(OC(F)F)cc2)CC1` [Compound 106, N-((1S,2R,5S)-8-(1H-tetrazol-5-yl)-8-azabicyclo[3.2.1]octan-2-yl)-1-(4-(difluoromethoxy)phenyl)cyclopropane-1-carboxamide]: the IC50 was over 0.5 µM.

The same experiment, now with this note: read-out: PBMC IC50.
Consider `O=C(N[C@@H]1CCCN(c2ccccc2)C1)c1ccc(Cl)cc1` [Comparative Example J1, (R)-4-chloro-N-(1-phenylpiperidin-3-yl)benzamide, reference compound], for which the IC50 is over 100 µM.

Regarding `Cn1nnnc1N1CCC[C@@H](NC(=O)C2(c3ccc(Cl)cc3)CC2)C1` [Comparative Example F, (R)-1-(4-chlorophenyl)-N-(1-(1-methyl-1H-tetrazol-5-yl)piperidin-3-yl)cyclopropane-1-carboxamide, reference compound], the IC50 amounted to 8.4 µM.
